Target: Human Cav3.1 (Homo sapiens (Human), UniProt O43497)
Experiment: Cav3.1 automated patch clamp assay (SyncroPatch 384PE), HEK-293 natClytin/TASK1+Cav3.1 cell line
Type: cell-based
Settings: Table 1, HEK-293 natClytin/TASK1+Cav3.1 cells
Description: Inhibition of the T-type voltage gated calcium channel (Cav3.1) was evaluated using a HEK-293 natClytin/TASK1+Cav3.1 cell line. Currents were recorded using the SyncroPatch 384PE automated, patch clamp system. Pulse generation and data collection were performed with PatchController384 V1.3.0 and DataController384 V1.2.1 (Nanion Technologies). Off-line analysis was performed using Excel and Graphpad Prism (V 8.4.2) with complete data files uploaded to Dotmatics. The access resistance and apparent membrane capacitance were estimated using built-in protocols. Current was recorded in whole cell configuration from a population of cells. The cells were lifted, triturated, and resuspended at 800,000 cells/ml. The cells were allowed to recover in the cell hotel prior to experimentation. Currents were recorded at room temperature. The external solution contained the following (in mM): NaCl 80, NMDG 60, KCl 4, MgCl2 1, CaCl2 6, glucose 5 and HEPES 10 (pH=7.4, Osmolarity ˜300 mOsm). The extracellular solution was used as the wash, reference and compound delivery solution. The internal solution contained the following (in mM): CsF 110, CsCl 10, NaCl 10, EGTA 10, HEPES 10 (pH=7.2, Osmolarity ˜295 mOsm). The compound plate was created at 2× concentrated in the extracellular solution. The compound was diluted to 1:2 when added to the recording well. The amount of […] in the extracellular solution was held constant at the level used for the highest tested concentration. For the voltage clamp experiments on Cav3.1, data were sampled at 10 KHz. After establishment of the seal and the passage in the whole cell configuration, the cells were held at −120 mV. Cav3.1 current was evoked using a 100 ms step to −20 mV (to measure resting state block), followed by a 1600 ms step to −65 mV and a second 100 ms step to −20 mV (to measure voltage dependent block). The voltage protocol was applied every 15 seconds in the absence and in the presence of the compounds under investigation. […] Current amplitude (pA) was measured in the peak 1 and 2. The average of last 3 sweeps of each liquid period (vehicle, compound under investigation, full block) was calculated. Nickel-sensitive current was used to calculate the % of inhibition in the presence of the compound under investigation.

Sequence of Human Cav3.1 (O43497 whole entry): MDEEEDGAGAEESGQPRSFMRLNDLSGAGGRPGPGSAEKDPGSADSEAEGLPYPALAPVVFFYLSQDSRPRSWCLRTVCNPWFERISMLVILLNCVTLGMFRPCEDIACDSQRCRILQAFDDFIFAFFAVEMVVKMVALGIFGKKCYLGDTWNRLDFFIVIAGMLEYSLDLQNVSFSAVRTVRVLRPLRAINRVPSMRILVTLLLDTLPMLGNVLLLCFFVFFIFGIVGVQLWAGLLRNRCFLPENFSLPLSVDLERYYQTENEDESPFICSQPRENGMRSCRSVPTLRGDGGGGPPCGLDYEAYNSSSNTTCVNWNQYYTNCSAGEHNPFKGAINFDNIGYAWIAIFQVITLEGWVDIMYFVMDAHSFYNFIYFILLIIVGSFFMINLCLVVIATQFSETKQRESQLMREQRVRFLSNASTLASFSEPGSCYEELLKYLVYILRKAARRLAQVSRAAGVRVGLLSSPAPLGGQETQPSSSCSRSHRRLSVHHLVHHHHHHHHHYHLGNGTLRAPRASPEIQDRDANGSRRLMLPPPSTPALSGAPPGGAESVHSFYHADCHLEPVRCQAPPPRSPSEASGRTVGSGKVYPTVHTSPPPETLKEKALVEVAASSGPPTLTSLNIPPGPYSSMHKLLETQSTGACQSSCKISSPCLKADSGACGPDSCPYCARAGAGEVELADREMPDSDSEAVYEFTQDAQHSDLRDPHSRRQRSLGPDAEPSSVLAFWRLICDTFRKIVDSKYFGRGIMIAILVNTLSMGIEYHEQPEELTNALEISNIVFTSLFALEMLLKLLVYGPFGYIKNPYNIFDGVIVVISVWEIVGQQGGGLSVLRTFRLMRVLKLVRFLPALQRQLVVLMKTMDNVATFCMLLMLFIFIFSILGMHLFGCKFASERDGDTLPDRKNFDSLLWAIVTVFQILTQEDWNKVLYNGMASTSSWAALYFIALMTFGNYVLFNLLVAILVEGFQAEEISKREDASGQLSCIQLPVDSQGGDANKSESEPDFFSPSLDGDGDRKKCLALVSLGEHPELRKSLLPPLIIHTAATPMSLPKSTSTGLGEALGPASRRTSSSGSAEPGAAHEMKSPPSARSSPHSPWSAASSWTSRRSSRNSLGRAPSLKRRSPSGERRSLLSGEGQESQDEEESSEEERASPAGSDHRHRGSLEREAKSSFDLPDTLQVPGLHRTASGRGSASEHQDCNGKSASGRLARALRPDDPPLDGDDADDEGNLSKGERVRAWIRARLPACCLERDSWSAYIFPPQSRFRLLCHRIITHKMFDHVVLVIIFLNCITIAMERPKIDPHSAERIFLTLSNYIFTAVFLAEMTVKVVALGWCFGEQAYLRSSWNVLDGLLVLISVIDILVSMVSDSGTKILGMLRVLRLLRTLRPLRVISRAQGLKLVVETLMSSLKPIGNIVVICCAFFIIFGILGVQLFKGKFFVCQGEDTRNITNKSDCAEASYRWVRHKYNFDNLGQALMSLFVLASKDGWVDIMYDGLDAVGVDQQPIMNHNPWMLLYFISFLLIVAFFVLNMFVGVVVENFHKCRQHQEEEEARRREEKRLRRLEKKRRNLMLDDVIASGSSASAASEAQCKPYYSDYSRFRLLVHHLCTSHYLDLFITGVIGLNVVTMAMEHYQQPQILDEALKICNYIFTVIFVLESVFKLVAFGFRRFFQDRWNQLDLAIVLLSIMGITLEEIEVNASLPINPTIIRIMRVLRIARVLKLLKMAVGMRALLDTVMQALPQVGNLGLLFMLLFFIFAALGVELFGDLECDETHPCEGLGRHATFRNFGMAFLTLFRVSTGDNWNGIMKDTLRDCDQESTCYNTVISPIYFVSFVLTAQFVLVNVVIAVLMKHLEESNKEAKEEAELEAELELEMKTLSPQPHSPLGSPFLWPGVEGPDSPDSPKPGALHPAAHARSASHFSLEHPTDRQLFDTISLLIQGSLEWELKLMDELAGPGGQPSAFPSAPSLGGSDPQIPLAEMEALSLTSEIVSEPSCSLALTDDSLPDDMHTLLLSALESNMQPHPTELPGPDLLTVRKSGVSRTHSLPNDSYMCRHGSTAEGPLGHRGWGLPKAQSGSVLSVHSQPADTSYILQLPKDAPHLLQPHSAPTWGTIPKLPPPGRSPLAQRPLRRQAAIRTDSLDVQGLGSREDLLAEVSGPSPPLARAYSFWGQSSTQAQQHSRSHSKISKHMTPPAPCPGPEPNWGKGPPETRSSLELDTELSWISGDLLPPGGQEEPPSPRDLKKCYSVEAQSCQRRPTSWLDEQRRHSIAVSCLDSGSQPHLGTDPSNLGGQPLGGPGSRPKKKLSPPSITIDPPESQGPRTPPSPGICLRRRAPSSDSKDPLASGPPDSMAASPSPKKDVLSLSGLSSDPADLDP

IC50 [nM]	Compound
≥ 10000	Cc1cc(NC(=O)CN2CC3(C2)CN(CC(=O)NC(C)(C)C)C3)nn1-c1ccccc1 [Example 7]
≥ 10000	CC(C)(C)NC(=O)CN1CC2(CN(CC(=O)Nc3cccc(Cl)c3F)C2)C1 [Example 8]
1000 to 10000	CC(C)(C)NC(=O)CN1CC2(CN(CC(=O)Nc3cc(F)cc(C(F)F)c3)C2)C1 [Example 3]
1000 to 10000	CC(C)(C)NC(=O)CN1CC2(CN(CC(=O)Nc3cccc(Cl)c3)C2)C1 [Example 6]
1000 to 10000	CC(C)(C)NC(=O)CN1CC2(CN(CC(=O)Nc3ccc(F)c(Cl)c3)C2)C1 [Example 5]
1000 to 10000	Cc1cc(F)cc(NC(=O)CN2CC3(C2)CN(CC(=O)NC(C)(C)C)C3)c1 [Example 4]
1000 to 10000	COc1cc(F)cc(NC(=O)CN2CC3(C2)CN(CC(=O)NC(C)(C)C)C3)c1 [Example 2]

Compound	IC50 [nM]
CC(C)(C)NC(=O)CN1CC2(CN(CC(=O)Nc3cc(Cl)cc(Cl)c3)C2)C1 [Example 1, N-(tert-butyl)-2-(6-(2-((3,5-dichlorophenyl)amino)-2-oxoethyl)-2,6-diazaspiro[3.3]heptan-2-yl)acetamide]	< 1000

Same assay, conditions: Table 2, HEK-293 natClytin/TASK1+Cav3.1 cells

IC50 [nM]	Compound
< 1000	CCC(C)(C)NC(=O)CN1CC2(C1)CN(Cc1nc3c(Cl)cc(F)cc3[nH]1)C2 [Example 32]
1000 to 10000	Cc1nc(CN2CC3(CN(CC(=O)Nc4cc(F)cc(Cl)c4)C3)C2)co1 [Example 22]
1000 to 10000	Cc1cc(F)cc2[nH]c(CN3CC4(CN(CC(=O)NC(C)(C)C)C4)C3)nc12 [Example 38]
< 1000	CC(C)(C)NC(=O)CN1CC2(C1)CN(C(=O)Nc1cc(F)cc(Cl)c1)C2 [Example 43]
< 1000	CC(C)(C)CCN1CC2(C1)CN(CC(=O)Nc1cc(F)cc(Cl)c1)C2 [Example 21]
1000 to 10000	O=C(CN1CC2(C1)CN(CC(=O)NC1CCCC1)C2)Nc1cc(F)cc(Cl)c1 [Example 16]
< 1000	O=C(CN1CC2(C1)CN(Cc1nc3ccccc3[nH]1)C2)Nc1cc(F)cc(Cl)c1 [Example 18]
1000 to 10000	O=C(CN1CC2(C1)CN(Cc1nc(-c3ccccc3)co1)C2)Nc1cc(F)cc(Cl)c1 [Example 28]
< 1000	O=C(CN1CC2(CN(CCC3CCC(F)(F)CC3)C2)C1)Nc1cc(F)cc(Cl)c1 [Example 26]
< 1000	O=C(CN1CC2(C1)CN(Cc1cccc(Cl)c1)C2)Nc1cc(F)cc(Cl)c1 [Example 25]
1000 to 10000	CC(C)(C)c1ncc(CN2CC3(CN(CC(=O)Nc4cc(F)cc(Cl)c4)C3)C2)[nH]1 [Example 29]
< 1000	O=C(CN1CC2(C1)CN(Cc1cccc(C(F)F)c1)C2)Nc1cc(F)cc(Cl)c1 [Example 27]
1000 to 10000	COc1cccc(CN2CC3(CN(CC(=O)Nc4cc(F)cc(Cl)c4)C3)C2)c1 [Example 24]
< 1000	Fc1cc(Cl)c2nc(CN3CC4(CN(CCC5CCCC5)C4)C3)[nH]c2c1 [Example 34]
1000 to 10000	CC(C)(C)NC(=O)CN1CC2(CN(CC(=O)Nc3cc(F)cc(OC(F)F)c3)C2)C1 [Example 41]
1000 to 10000	CC(C)(NC(=O)CN1CC2(CN(CC(=O)Nc3cc(F)cc(Cl)c3)C2)C1)C(F)(F)F [Example 17]
< 1000	CC(C)(C)NC(=O)CN1CC2(C1)CN(Cc1nc3c(Cl)cc(Cl)cc3[nH]1)C2 [Example 39]

IC50 [nM]	Compound
< 1000	CC(C)(C)c1nc(CN2CC3(CN(CC(=O)Nc4cc(F)cc(Cl)c4)C3)C2)co1 [Example 13]
< 1000	O=C(CN1CC2(C1)CN(Cc1cnc(-c3ccccc3)[nH]1)C2)Nc1cc(F)cc(Cl)c1 [Example 23]
< 1000	CC1(NC(=O)CN2CC3(CN(CC(=O)Nc4cc(F)cc(Cl)c4)C3)C2)CCC1 [Example 14]
< 1000	CC(C)(NC(=O)CN1CC2(C1)CN(Cc1nc3c(Cl)cc(F)cc3[nH]1)C2)C(F)(F)F [Example 31]
< 1000	O=C(CN1CC2(CN(CCC3CCCC3)C2)C1)Nc1cc(F)cc(Cl)c1 [Example 20]
1000 to 10000	CC(C)(C)NC(=O)CN1CC2(C1)CN(Cc1nc3c(F)cc(OC(F)F)cc3[nH]1)C2 [Example 40]
1000 to 10000	CC(C)(C)c1coc(CN2CC3(CN(CC(=O)Nc4cc(F)cc(Cl)c4)C3)C2)n1 [Example 19]
< 1000	CC(C)(C)CCCN1CC2(C1)CN(Cc1nc3c(Cl)cc(F)cc3[nH]1)C2 [Example 35]
1000 to 10000	Cc1coc(CN2CC3(CN(CC(=O)Nc4cc(F)cc(Cl)c4)C3)C2)n1 [Example 30]
< 1000	CC(C)(C)NC(=O)CN1CC2(C1)CN(Cc1nc3cc(F)cc(Cl)c3[nH]1)C2 [Example 9, N-(tert-butyl)-2-(6-((7-chloro-5-fluoro-1H-benzo[d]imidazol-2-yl)methyl)-2,6-diazaspiro[3.3]heptan-2-yl)acetamide]
< 1000	CCC(C)(C)NC(=O)CN1CC2(CN(CC(=O)Nc3cc(F)cc(Cl)c3)C2)C1 [Example 10, N-(3-chloro-5-fluoro-phenyl)-2-[2-[2-(1,1-dimethylpropylamino)-2-oxo-ethyl]-2,6-diazaspiro[3.3]heptan-6-yl]acetamide]
1000 to 10000	Cc1cccc2[nH]c(CN3CC4(CN(CC(=O)NC(C)(C)C)C4)C3)nc12 [Example 37]
< 1000	O=C(CN1CC2(C1)CN(Cc1coc(-c3ccccc3)n1)C2)Nc1cc(F)cc(Cl)c1 [Example 15]
< 1000	CC(C)(C)CCN1CC2(C1)CN(Cc1nc3c(Cl)cc(F)cc3[nH]1)C2 [Example 33]
< 1000	Fc1cc(Cl)c2nc(CN3CC4(C3)CN(CC3CCC(F)(F)CC3)C4)[nH]c2c1 [Example 36]
< 1000	CC(C)(C)NC(=O)CN1CC2(CN(CC(=O)Nc3cc(F)cc(Cl)c3)C2)C1 [Example 11]
1000 to 10000	CC(C)(C)NC(=O)CN1CC2(C1)CN(CC(=O)NC13CC4CC(CC(C4)C1)C3)C2 [Example 12]

Reference: patent US20250215011A1, “T-TYPE CALCIUM CHANNEL MODULATORS COMPRISING A DIAZASPIROHEPTANE CORE AND METHODS OF USE THEREOF” (Praxis Precision Medicines, Inc., priority 2022, published 2025)
